In PubChem BioAssay (NCI) one finds TGI and GI50 data, which are given here for 13 compounds.

Some test systems named below: IGROV1 ovarian; M14 melanoma; OVCAR-3 ovarian; SF-295 CNS; SK-MEL-28 melanoma; SK-OV-3 ovarian; TK-10 renal; A498 renal; EKVX NSCLC; SK-MEL-5 melanoma.
Holding throughout (assay): NCI-60 cell line screen, 48 h

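All cell lines were grown in 96-well plates and treated with compound for 48 hours. GI50 = concentration required for 50% inhibition of growth. TGI: concentration producing complete growth inhibition.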

For the compound `COC(=O)NC(=O)c1cn(C2OC(CO)C(O)C2O)c(=O)[nH]c1=O` (centres undefined), the TGI in the test on IGROV1 ovarian, in the test on M14 melanoma, in the test with OVCAR-3 ovarian, with SF-295 CNS, with SK-MEL-28 melanoma and with SK-OV-3 ovarian was more than 100 µM in each case. The compound further had a TGI in the test with TK-10 renal of more than 100 µM.
Take `C=C(C)[C@@H]1CC[C@]2(C)CC[C@]3(C)[C@H](CC[C@@H]4[C@@]5(C)CC[C@H](O)C(C)(C)[C@@H]5CC[C@]43C)[C@@H]12`: the TGI in the test with A498 renal is 32.6 µM; in the test with EKVX NSCLC, more than 100 µM; in the test with IGROV1 ovarian, more than 100 µM; in the test with M14 melanoma, more than 100 µM; with OVCAR-3 ovarian, more than 100 µM; with SF-295 CNS, more than 82.7 µM. The TGI in the test on SK-MEL-28 melanoma, in the test on SK-MEL-5 melanoma and in the test with TK-10 renal was more than 100 µM each time.
`O=C1CC(O)CC(=O)C1=C(O)CCCCCCCCCCc1ccccc1` (centres undefined): the TGI in the test on EKVX NSCLC, with IGROV1 ovarian, in the test with M14 melanoma, with OVCAR-3 ovarian, in the test with SF-295 CNS and in the test on SK-MEL-28 melanoma was more than 100 µM throughout. The TGI in the test with SK-MEL-5 melanoma, in the test with SK-OV-3 ovarian and in the test with TK-10 renal was more than 100 µM throughout.
For the compound `CN1CCC2(CC1)ONC1=NCCN12`, the GI50 is 41.4 µM in the test on A498 renal; 92.5 µM with EKVX NSCLC; 47.9 µM in the test with M14 melanoma; 44.5 µM in the test with SF-295 CNS; more than 100 µM with SK-MEL-28 melanoma; 59.8 µM with SK-MEL-5 melanoma. Also, the GI50 in the test on SK-OV-3 ovarian is 42 µM. For the same compound, the TGI with A498 renal, in the test with EKVX NSCLC, in the test with M14 melanoma, in the test with SF-295 CNS, with SK-MEL-28 melanoma and with SK-MEL-5 melanoma was more than 100 µM each time. For the same compound, the TGI with SK-OV-3 ovarian was more than 100 µM.
For the compound `C=C1C(=O)O[C@@H]2C[C@@H](C)[C@@H]3C=CC(=O)[C@@]3(C)[C@@H](O)[C@H]12`, the TGI in the test with A498 renal is 3.52 µM; in the test on EKVX NSCLC it was 8.89 µM; with IGROV1 ovarian it was 8.1 µM; in the test on M14 melanoma, 5.63 µM; in the test on OVCAR-3 ovarian it was 3.72 µM; in the test with SF-295 CNS it was 6.48 µM. Further, the results for the TGI with SK-MEL-28 melanoma, with SK-MEL-5 melanoma and in the test on TK-10 renal were 3.77 µM, 2.67 µM and 11.8 µM, respectively.
For the compound `N.N.N.N.N.NC(=O)c1nn[n-]n1.[Cl-].[Co+3]`, the GI50 with EKVX NSCLC, in the test with IGROV1 ovarian, in the test on M14 melanoma, in the test with OVCAR-3 ovarian, in the test on SF-295 CNS and in the test on SK-MEL-28 melanoma was more than 100 µM in each case. Besides, the GI50 in the test with SK-MEL-5 melanoma, with SK-OV-3 ovarian and with TK-10 renal was more than 100 µM each time. Also, the TGI with EKVX NSCLC, in the test on IGROV1 ovarian, in the test with M14 melanoma, in the test on OVCAR-3 ovarian, with SF-295 CNS and with SK-MEL-28 melanoma was more than 100 µM throughout. The TGI with SK-MEL-5 melanoma, with SK-OV-3 ovarian and with TK-10 renal was more than 100 µM throughout.
For the compound `COc1ccc(/C=C/C(=O)c2cc(OC)c(OC)c(OC)c2)cc1OCc1cn(Cc2ccc(F)cc2)nn1`, the GI50 in the test with A498 renal was 12.2 µM; with IGROV1 ovarian, 7.4 µM; in the test with M14 melanoma, 4.07 µM; with OVCAR-3 ovarian, 3.41 µM; with SK-MEL-28 melanoma, 5.62 µM; in the test on SK-MEL-5 melanoma, 3.24 µM. The GI50 with TK-10 renal is 3 µM. In addition, the TGI was 56.2 µM in the test on A498 renal; more than 100 µM in the test with IGROV1 ovarian; more than 100 µM with M14 melanoma; more than 100 µM in the test on OVCAR-3 ovarian; 35.5 µM with SK-MEL-28 melanoma; 13.3 µM in the test with SK-MEL-5 melanoma. The same compound displayed a TGI in the test with TK-10 renal of 8.06 µM.
In the case of `Cc1cccc(/C=C/c2c(C(=O)/C=C/c3ccccc3)c(C)nc3ccccc23)c1`, the GI50 is 1.77 µM with A498 renal; 1.75 µM in the test on EKVX NSCLC; 1.44 µM in the test on IGROV1 ovarian; 1.46 µM in the test with OVCAR-3 ovarian; 1.89 µM in the test with SF-295 CNS; 1.81 µM in the test on SK-MEL-28 melanoma. The GI50 with SK-MEL-5 melanoma was 1.64 µM. The TGI in the test with A498 renal was found to be 3.26 µM; with EKVX NSCLC, 3.26 µM; in the test with IGROV1 ovarian, 4 µM; in the test on OVCAR-3 ovarian, 2.81 µM; in the test on SF-295 CNS, 3.73 µM; in the test on SK-MEL-28 melanoma, 3.28 µM. This compound also registered a TGI in the test with SK-MEL-5 melanoma of 2.99 µM.
Regarding `CC1(C)O[C@H]2[C@H](O)C[C@](O)(CO)C[C@H]2O1`, the TGI in the test on EKVX NSCLC, in the test on IGROV1 ovarian, in the test on M14 melanoma, in the test on OVCAR-3 ovarian, in the test with SF-295 CNS and in the test on SK-MEL-28 melanoma was more than 100 µM in each case. The TGI in the test with SK-MEL-5 melanoma, in the test on SK-OV-3 ovarian and in the test on TK-10 renal was more than 100 µM each time.
Regarding `Cc1cc(CC(=O)NCCO)n(CCO)c(=O)c1`, the TGI in the test with IGROV1 ovarian, in the test with M14 melanoma, with OVCAR-3 ovarian, in the test with SF-295 CNS, with SK-MEL-28 melanoma and in the test on SK-MEL-5 melanoma was more than 100 µM throughout. In the test on TK-10 renal, this compound displayed a TGI of more than 100 µM.
`CCOC(=O)C12CCCC1(O)N(NC(=O)OC(C)(C)C)C(C)=C2C(=O)OC` (centres undefined): the TGI in the test on A498 renal, with EKVX NSCLC, in the test on IGROV1 ovarian, in the test with M14 melanoma, in the test on OVCAR-3 ovarian and with SF-295 CNS was more than 100 µM in each case. Besides, the TGI in the test on SK-OV-3 ovarian and in the test on TK-10 renal was more than 100 µM throughout.
For the compound `COc1ccc(/C=N/N=C(\N)NO)cc1O`, the TGI with EKVX NSCLC, with IGROV1 ovarian, in the test on SK-MEL-28 melanoma, in the test with SK-MEL-5 melanoma and with SK-OV-3 ovarian was more than 100 µM in each case.
With `N#Cc1ccc(OCc2nc(N)nc(N)c2-c2ccc(Cl)c(Cl)c2)cc1`, the GI50 is 1.43 µM in the test on A498 renal; 1.73 µM in the test on IGROV1 ovarian; 0.741 µM in the test on M14 melanoma; 5.24 µM with OVCAR-3 ovarian; 0.725 µM in the test on SF-295 CNS; 4.39 µM in the test on SK-MEL-28 melanoma. The values for the GI50 in the test on SK-MEL-5 melanoma and in the test on SK-OV-3 ovarian were 0.724 µM and 4.72 µM, respectively. The TGI in the test with A498 renal is 10.8 µM; in the test with IGROV1 ovarian it was more than 100 µM; with M14 melanoma, more than 100 µM; with OVCAR-3 ovarian, 38.2 µM; in the test with SF-295 CNS, more than 100 µM; in the test with SK-MEL-28 melanoma it was 40.2 µM. In addition, the TGI with SK-MEL-5 melanoma was 13.2 µM; in the test with SK-OV-3 ovarian, more than 100 µM.
